Here are results for six molecules from ChEMBL document CHEMBL1140417, “Total and semisynthesis and in vitro studies of both enantiomers of 20-fluorocamptothecin” (Bioorg Med Chem Lett, 2005).

Calls of active or inactive are those of the source. The rule behind the calls is not given here.

This experiment addresses T1, DNA topoisomerase 1 (Homo sapiens) (UniProt P11387).
T1 sequence (whole entry): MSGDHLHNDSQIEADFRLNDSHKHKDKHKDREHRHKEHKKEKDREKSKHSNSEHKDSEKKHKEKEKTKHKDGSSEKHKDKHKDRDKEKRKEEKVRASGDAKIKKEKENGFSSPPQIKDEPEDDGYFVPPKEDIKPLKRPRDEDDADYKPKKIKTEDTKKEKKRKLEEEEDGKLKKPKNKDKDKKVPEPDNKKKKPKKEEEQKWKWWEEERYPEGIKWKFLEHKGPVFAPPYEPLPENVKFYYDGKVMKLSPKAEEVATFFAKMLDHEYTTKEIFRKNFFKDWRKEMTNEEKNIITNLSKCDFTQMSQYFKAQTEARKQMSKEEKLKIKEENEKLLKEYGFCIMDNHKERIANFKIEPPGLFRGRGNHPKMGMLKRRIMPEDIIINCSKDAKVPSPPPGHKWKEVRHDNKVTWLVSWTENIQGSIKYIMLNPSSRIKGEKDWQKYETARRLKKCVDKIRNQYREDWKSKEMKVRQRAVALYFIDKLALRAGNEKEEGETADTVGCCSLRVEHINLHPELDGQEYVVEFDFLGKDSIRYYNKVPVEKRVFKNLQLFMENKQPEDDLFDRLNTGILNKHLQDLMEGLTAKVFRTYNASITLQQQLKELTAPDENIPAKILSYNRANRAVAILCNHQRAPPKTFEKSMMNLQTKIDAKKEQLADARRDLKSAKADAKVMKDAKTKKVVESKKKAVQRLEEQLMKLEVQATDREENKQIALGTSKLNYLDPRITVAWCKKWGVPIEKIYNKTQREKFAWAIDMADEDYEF
As to the kind of experiment: Inhibition of topoisomerase-1 at 100 uM.
`CC[C@]1(F)C(=O)OCc2c1cc1n(c2=O)Cc2cc3cc4c(cc3nc2-1)OCO4`: the outcome was inactive. `CC[C@]1(F)C(=O)OCc2c1cc1n(c2=O)Cc2c-1nc1ccc(O)cc1c2[Si](C)(C)C(C)(C)C`: the outcome was inactive. In the case of `CC[C@]1(F)C(=O)OCc2c1cc1n(c2=O)Cc2cc3ccccc3nc2-1` it was “inactive”; in that of `CC[C@@]1(F)C(=O)OCc2c1cc1n(c2=O)Cc2cc3ccccc3nc2-1`, “Active”; in that of `CC[C@]1(F)C(=O)OCc2c1cc1n(c2=O)Cc2cc3cc(F)ccc3nc2-1`, “inactive”. To `CC[C@]1(F)C(=O)OCc2c1cc1n(c2=O)Cc2cc3c4c(ccc3nc2-1)OCO4` belongs “inactive”.
